Experimental data taken from patent US10829446B2, “Aryl sulfonohydrazides” (MONASH UNIVERSITY, priority 2015, dated 2020).
pIC50: −log10 of the molar value.

Columns and labels:
MOZ enzyme = MOZ enzyme (Homo sapiens (Human), UniProt Q92794); assay: Moz biochemical assay (AlphaScreen histone H4 peptide acetylation)
INK4a and ARF null cells = assay: Bioassay 1 repeated in INK4a and ARF null cells; type: cell-based; conditions: 1 μM, 2 μM, 5 μM, 10 μM
Protocol: Cells are plated in triplicate cultures at 10,204 cells/cm^2 in the presence of a test compound. Compounds are tested at 500 nM, 1 μM, 2 μM, 5 μM, 10 μM and 20 μM. Control compounds include those that have a similar structure but show no activity in biochemical assays. After 48 hours, cells are passaged and counted, then replated at 10,204/cm^2. This procedure is continued for 336 hours. The total number of cells produced at each passage is then calculated and compared between treatment groups. […] Cells are analysed by flow cytometry for the absence of markers of apoptosis by staining with propidium iodide and FITC-conjugated annexin V. The level of DNA damaged is assessed by γH2A.X staining, a marker of DNA strand breaks.
The mechanism of action of these compounds, i.e. causing cell cycle arrest and senescence, was confirmed by repeating this assay using cells in which the INK4a/ARF pathways was inactivated by genetic deletion of a key exon common to both INK4a and the alternative splice product of the CDKN2a locus ARF.

B cell lineage = assay: Bioassay 10: effect on the B cell lineage in treated mice; type: in vivo; conditions: for numbers of pre B cells in the bone marrow: in words, daily I.P. injection; for immature B cells, percentage of WBC per femur / mature B cells, percentage of WBC per femur / pre-B cells, percentage of WBC per femur / pro-B cells, percentage of WBC per femur: wild type mice, 50 mg/kg I.P. daily
Protocol: Mice were treated with compounds at the dosage of 50 mg/kg by I.P injection. Compounds are prepared for injection as a slurry in 50% PEG400/H2O. The effect on the B cell lineage is determined by fluorescent cytometry using characteristic cell surface markers expressed at different stages of B cell development.

Cdc6 mRNA = assay: Bioassay 2: RT-qPCR of MOZ target genes in mouse embryonic fibroblasts; type: cell-based; conditions: 5 μM
Protocol: Mouse embryonic fibroblasts are isolated from wild type or Moz heterozygous animals and cultured at 3% oxygen/5% carbon dioxide/92% nitrogen. Cells are plated at a density of 1,020 cells/cm^2 or 2,040 cells/cm^2 or 10,204 cells/cm^2. A reference value for MOZ inhibition is generated through comparison with cells with a complete null mutation of MOZ. The absence of a functional Moz gene leads to senescence in 7-14 days at 3% oxygen.
Cells are plated in triplicate at 2,040 cells/cm^2 in the presence of a test compound. Compounds are tested at 500 nM, 1 μM, 2 μM, 5 μM, 10 μM and 20 μM. Control compounds include those that have a similar structure but show no activity in biochemical assays. […] RT-qPCR is used to assay the levels of MOZ target genes Ink4a, ink4b, Arf, Cdc6, Cdca8, Cdca2, E2f2, Ezh2, Skp2 and Melk.

wild type pro-B cells = assay: Bioassay 5: pro-B cell colony formation in methylcellulose, wild type; type: cell-based
Protocol: (§1) Pro-B cells are purified by positive selection using antiCD19-magnetic beads and fluorescence activated cell sorting using the criterion: cell surface expression of B220, CD19 and cKit but not IgM. After purification, 25,000 pro-B cells are seeded onto 3.5 cm culture dishes plate containing methylcellulose (MethoCult M3630, STEM CELL technologies) for 7 days. After 7 days culture, colonies in which there were more than 50 cells are counted. Subsequently, 190,000 pro-B cells are replated into methylcellulose for another 7 days of culture, followed by enumeration.

[1] = system: Eμ-Myc pre-leukemia pro-B cells; assay: Bioassay 5: pro-B cell colony formation in methylcellulose, Eμ-Myc; type: cell-based; conditions: 1 μM, Eμ-Myc pre-leukemia pro-B cells
Protocol: as §1

Wild type pre B cells [2] = assay: Bioassay 7: pre-B cell number dose response, wild type; type: cell-based; conditions: in words
Protocol: Pre B cells are isolated from bone marrow according to the criterion: cell surface expression of B220, CD19, but not cKit or IgM. Pre-B cells are cultured on OP9 cells with IL7 in the presence of compounds at concentrations from 0.01 μM to 20 μM in vitro for 4 days. Cell number is then enumerated and an IC50 is calculated.

Wild type pre B cells [3] = assay: Bioassay 8: cell cycle analysis (DNA content and Ki67); type: cell-based; conditions: 1 μM
Protocol: (§2) Pre B cells are isolated from bone marrow according to the criterion: cell surface expression of B220, CD19, but not cKit or IgM. Pre-B cells are cultured on OP9 cells with IL7 in the presence of compounds at various concentrations. The stages of the cell cycle in cultured pre-B cells with and without treatment is analysed by flow cytometry using a stain for DNA content combined with the cell cycle marker Ki67 to enumerate the proportion of cells in different phases of the cell cycle.

wild type pre-B cells = assay: Bioassay 9: cell cycle analysis (DNA content and BrdU); type: cell-based; conditions: 1 μM
Protocol: as §2, with “in” for “in cultured”, “using” for “by”, “cytometry to assay,” for “cytometry”, “BrdU” for “the cell cycle marker Ki67”, “determine” for “enumerate”, “S phase.” for “different phases of the cell cycle.”

Sequence of MOZ enzyme (Q92794 whole entry, species assumed): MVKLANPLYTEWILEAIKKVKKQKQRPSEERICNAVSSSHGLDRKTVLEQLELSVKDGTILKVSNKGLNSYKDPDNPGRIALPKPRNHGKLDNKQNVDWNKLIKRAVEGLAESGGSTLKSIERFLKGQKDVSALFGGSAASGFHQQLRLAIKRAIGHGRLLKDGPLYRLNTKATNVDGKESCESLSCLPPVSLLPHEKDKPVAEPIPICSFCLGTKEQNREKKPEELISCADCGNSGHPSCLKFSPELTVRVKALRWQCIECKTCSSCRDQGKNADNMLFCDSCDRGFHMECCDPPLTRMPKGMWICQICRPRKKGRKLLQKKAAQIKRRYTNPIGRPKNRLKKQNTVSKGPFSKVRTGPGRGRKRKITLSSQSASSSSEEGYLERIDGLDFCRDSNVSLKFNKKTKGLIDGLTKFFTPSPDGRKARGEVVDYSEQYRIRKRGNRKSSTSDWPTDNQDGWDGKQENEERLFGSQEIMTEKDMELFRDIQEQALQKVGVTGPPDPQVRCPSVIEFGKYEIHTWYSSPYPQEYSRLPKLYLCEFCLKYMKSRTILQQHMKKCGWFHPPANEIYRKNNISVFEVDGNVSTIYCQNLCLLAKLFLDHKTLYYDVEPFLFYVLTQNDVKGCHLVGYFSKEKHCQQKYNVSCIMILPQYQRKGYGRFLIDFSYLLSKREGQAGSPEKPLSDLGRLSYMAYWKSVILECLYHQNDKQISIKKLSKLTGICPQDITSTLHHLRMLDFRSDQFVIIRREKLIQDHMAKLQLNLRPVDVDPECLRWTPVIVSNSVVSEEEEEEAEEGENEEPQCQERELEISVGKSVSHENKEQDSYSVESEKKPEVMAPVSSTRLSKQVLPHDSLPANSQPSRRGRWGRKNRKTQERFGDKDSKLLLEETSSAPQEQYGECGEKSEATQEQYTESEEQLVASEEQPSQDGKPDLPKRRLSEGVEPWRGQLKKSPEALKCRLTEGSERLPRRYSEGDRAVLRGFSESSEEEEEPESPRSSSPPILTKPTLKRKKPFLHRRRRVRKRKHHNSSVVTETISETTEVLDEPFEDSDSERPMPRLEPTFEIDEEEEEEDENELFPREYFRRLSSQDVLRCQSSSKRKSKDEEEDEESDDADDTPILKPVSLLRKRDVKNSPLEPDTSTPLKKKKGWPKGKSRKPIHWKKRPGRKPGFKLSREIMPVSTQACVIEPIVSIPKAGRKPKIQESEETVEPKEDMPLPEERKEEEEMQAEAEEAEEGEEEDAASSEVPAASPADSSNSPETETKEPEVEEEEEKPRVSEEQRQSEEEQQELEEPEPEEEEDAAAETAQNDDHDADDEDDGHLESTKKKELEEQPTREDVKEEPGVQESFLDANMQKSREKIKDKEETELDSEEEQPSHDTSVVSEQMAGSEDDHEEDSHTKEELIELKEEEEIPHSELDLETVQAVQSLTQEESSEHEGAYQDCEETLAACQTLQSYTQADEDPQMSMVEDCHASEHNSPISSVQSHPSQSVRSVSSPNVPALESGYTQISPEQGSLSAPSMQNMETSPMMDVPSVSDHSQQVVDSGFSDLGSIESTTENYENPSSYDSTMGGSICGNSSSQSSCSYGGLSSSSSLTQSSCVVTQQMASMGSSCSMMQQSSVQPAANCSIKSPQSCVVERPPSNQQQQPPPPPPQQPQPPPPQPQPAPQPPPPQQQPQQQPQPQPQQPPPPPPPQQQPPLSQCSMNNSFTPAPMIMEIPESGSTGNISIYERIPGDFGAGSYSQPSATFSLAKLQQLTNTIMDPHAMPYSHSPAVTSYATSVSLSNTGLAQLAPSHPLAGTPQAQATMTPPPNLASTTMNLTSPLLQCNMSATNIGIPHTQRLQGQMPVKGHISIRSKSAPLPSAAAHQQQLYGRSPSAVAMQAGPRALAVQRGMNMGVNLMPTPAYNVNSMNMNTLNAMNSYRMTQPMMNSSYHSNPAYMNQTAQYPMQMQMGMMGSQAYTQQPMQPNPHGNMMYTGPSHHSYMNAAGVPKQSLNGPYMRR

Row | Structure (SMILES) | pIC50 (MOZ enzyme) | also measured
1 | O=C(NNS(=O)(=O)c1ccc2ccccc2c1)c1cccc(-c2ccccc2)c1 [Compound 1] | 5.53 | 
2 | CC(C)c1cccc(C(=O)NNS(=O)(=O)c2ccc3ccccc3c2)c1 [Compound 3] | 5.11 | 
3 | Cc1cccc(C(=O)NNS(=O)(=O)c2ccc3ccccc3c2)c1F [Compound 4] | 6.71 | 
4 | COc1ccccc1-c1cccc(C(=O)NNS(=O)(=O)c2ccccc2)c1 [Compound 27] | 4.95 | 
5 | O=C(NNS(=O)(=O)c1ccccc1)c1cccc(-c2ccccc2)c1F [Compound 33] | 6.57 | 
6 | O=C(NNS(=O)(=O)c1ccccc1)c1cc(-c2ccccc2)cc(Cl)c1F [Compound 35] | 7.09 | 
7 | O=C(NNS(=O)(=O)c1ccccc1)c1cc(-c2cccs2)cc(Cl)c1F [Compound 37] | 4.07 | inhibition of cell proliferation (INK4a and ARF null cells): no inhibition of cell proliferation was detected
8 | O=C(NNS(=O)(=O)c1ccccc1F)c1cc(F)cc(-c2ccccn2)c1 [Compound 46] |  | numbers of pre B cells in the bone marrow (B cell lineage): markedly reduced numbers of pre B cells in the bone marrow; immature B cells, percentage of WBC per femur (B cell lineage): 3.33%; mature B cells, percentage of WBC per femur (B cell lineage): 3.65%; pre-B cells, percentage of WBC per femur (B cell lineage): 10.59%; pro-B cells, percentage of WBC per femur (B cell lineage): 1.14%
9 | Cc1cc(-c2ncccn2)cc(C(=O)NNS(=O)(=O)c2ccccc2)c1F [Compound 53] |  | CDC6 mRNA % control (Cdc6 mRNA): 62.8%
10 | O=C(NNS(=O)(=O)c1ccccc1F)c1cc(F)cc(-n2cccn2)c1 [Compound 64] |  | CDC6 mRNA % control (Cdc6 mRNA): 60.9%
11 | O=C(NNS(=O)(=O)c1ccccc1F)c1cccc(OCC2CC2)c1 [Compound 90] | 6.94 | 
12 | O=C(NNS(=O)(=O)c1ccccc1)c1ccnc(-c2ccccc2)c1 [Compound 106] | 4.72 | 
13 | O=C(NNS(=O)(=O)c1ccccc1)c1cc(-c2ccnnc2)ccc1F [Compound 108] |  | colony number (wild type pro-B cells; 1 μM, wild type pro-B cells, primary colonies): 245.125; colony number, secondary colony formation (wild type pro-B cells; 1 μM, wild type pro-B cells, secondary colony formation): 77; colony formation (wild type pro-B cells; in words, compared to vehicle): inactive; colony number ([1]; primary colonies): 180.5; colony number, secondary colony formation ([1]; secondary colony formation): 78; effect on pre B cell proliferation (Wild type pre B cells [2]): has no effect; cells in G0 (Wild type pre B cells [3]; cultured for 4 days): 10.8%; cells in G1 (Wild type pre B cells [3]; cultured for 4 days): 53.7%; cells in G2/M (Wild type pre B cells [3]; cultured for 4 days): 12.1%; cells in S (Wild type pre B cells [3]; cultured for 4 days): 23.6%; cells in G0 (Wild type pre B cells [3]; cultured for 6 days): 8.6%; cells in G1 (Wild type pre B cells [3]; cultured for 6 days): 62.0%; cells in G2/M (Wild type pre B cells [3]; cultured for 6 days): 8.5%; cells in S (Wild type pre B cells [3]; cultured for 6 days): 14.7%; cells in G0/G1 (BrdU) (wild type pre-B cells): 44.2; cells in G2/M (BrdU) (wild type pre-B cells): 5.2; cells in S (BrdU) (wild type pre-B cells): 46.2
14 | O=C(NNS(=O)(=O)c1ccccc1)c1cncc(-c2ccccc2)c1 [Compound 109] | 4.67 | 
15 | O=C(NNS(=O)(=O)c1ccccc1)c1cccc(-c2ccccc2)n1 [Compound 116] | 4.78 | 
16 | O=C(NNS(=O)(=O)c1ccccc1)c1cc(-c2ccc(F)cc2)ccc1F [Compound 133] | 6.08 | 
17 | CCOc1cc(C)cc(C(=O)NNS(=O)(=O)c2ccccc2F)c1 [Compound 137] |  | CDC6 mRNA % control (Cdc6 mRNA): 67.5%; numbers of pre B cells in the bone marrow (B cell lineage): markedly reduced numbers of pre B cells in the bone marrow; immature B cells, percentage of WBC per femur (B cell lineage): 3.92%; mature B cells, percentage of WBC per femur (B cell lineage): 3.16%; pre-B cells, percentage of WBC per femur (B cell lineage): 12.71%; pro-B cells, percentage of WBC per femur (B cell lineage): 1.01%
18 | O=S(=O)(NNCc1cccc(-c2cccc(Cl)c2)c1)c1ccccc1 [Compound 147] | 4.04 | 
19 | Cc1cccc(C(=O)NNS(=O)(=O)c2ccc3ccccc3c2)c1 [Compound 148] | 5.75 | 
20 | Cc1cc(-c2ccccc2)c(F)c(C(=O)NNS(=O)(=O)c2ccccc2)c1F [Compound 154] | 8.00 | 
21 | Cc1cc(-n2cccn2)c(F)c(C(=O)NNS(=O)(=O)c2ccccc2)c1F [Compound 155] | 7.15 | 
22 | O=C(NNS(=O)(=O)c1ccccc1)c1cc(-c2ccccc2)ccc1F [Compound 157] | 7.77 | 

Now from value to compound, other results behind:

Row | pIC50 (MOZ enzyme) | Structure (SMILES) | also measured
23 | 6.54 | O=C(NNS(=O)(=O)c1ccccc1)c1cccc(-c2ccccc2)c1 [Compound 2] | 
24 | 5.69 | O=C(NNS(=O)(=O)c1ccccc1)c1cccc(I)c1 [Compound 6] | 
25 | 5.13 | O=C(NNS(=O)(=O)c1ccccc1)c1cccc(-c2cc[nH]n2)c1 [Compound 7] | 
26 | 6.79 | O=C(NNS(=O)(=O)c1ccccc1)c1cccc(-c2ccsc2)c1 [Compound 8] | 
27 | 6.33 | O=C(NNS(=O)(=O)c1ccccc1)c1cccc(-c2cccs2)c1 [Compound 14] | 
28 | 5.42 | O=C(NNS(=O)(=O)c1ccccc1)c1cccc(-c2ccc(F)cc2)c1 [Compound 25] | 
29 | 4.40 | COc1ccc(-c2cccc(C(=O)NNS(=O)(=O)c3ccccc3)c2)cc1 [Compound 26] | 
30 | 5.49 | COc1cccc(-c2cccc(C(=O)NNS(=O)(=O)c3ccccc3)c2)c1 [Compound 28] | 
31 | 6.26 | O=C(NNS(=O)(=O)c1ccccc1)c1cccc(-c2ccccc2F)c1 [Compound 29] | 
32 | 6.14 | O=C(NNS(=O)(=O)c1ccccc1)c1cccc(-c2cccc(F)c2)c1 [Compound 30] | 
33 | 5.07 | N#Cc1cccc(-c2cccc(C(=O)NNS(=O)(=O)c3ccccc3)c2)c1 [Compound 31] | 
34 | 4.59 | O=C(NNS(=O)(=O)c1ccccc1)c1cccc(-c2ccc(Cl)cc2)c1 [Compound 32] | 
35 | 5.10 | O=C(NNS(=O)(=O)c1ccccc1)c1cccc(-c2ccccc2Cl)c1 [Compound 34] | 
36 | 4.88 | O=C(NNS(=O)(=O)c1ccccc1)c1cccc(-c2cccnc2)c1 [Compound 98] | 
